Laboratory results as given in patent US6737383B1, “Herbicidal oxadiazolidines” (priority 1999, dated 2004).

Tests used:
[1] = system: soybean; assay: Test B pre/postemergence soybean; type: in vivo, Glycine max; settings: for Soybean plant response rating: scale of 0 to 10 where 0 is no effect and 10 is complete control
In short: (§1)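 Response is a visual 0-to-10 score relative to untreated plants, where 0 means no effect and 10 means complete control, taken twelve to sixteen days after application. Treatments went onto soil at planting and onto foliage of 1- to 4-leaf plants, using a surfactant-containing non-phytotoxic solvent.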

[2] = system: purple nutsedge; assay: Test B pre/postemergence purple nutsedge; type: in vivo, Cyperus rotundus; settings: for Nutsedge plant response rating: scale of 0 to 10 where 0 is no effect and 10 is complete control
In short: as §1

[3] = system: bamyardgrass; assay: Test B flood test barnyardgrass; type: in vivo, Echinochloa crus-galli
In short: (§2)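 Flood test on plants grown to the 2-leaf stage; treated plants kept in greenhouse twelve to sixteen days, then visually rated against controls on a 0 (no effect) to 10 (complete control) scale.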

[4] = system: blackgrass; assay: Test B pre/postemergence blackgrass; type: in vivo, Alopecurus myosuroides; settings: for Blackgrass plant response rating: scale of 0 to 10 where 0 is no effect and 10 is complete control
In short: as §1

[5] = system: sugar beet; assay: Test B pre/postemergence sugar beet; type: in vivo, Beta vulgaris; settings: for Sugarbeets plant response rating: scale of 0 to 10 where 0 is no effect and 10 is complete control
In short: as §1

[6] = system: corn; assay: Test B pre/postemergence corn; type: in vivo, Zea mays; settings: for Corn plant response rating: scale of 0 to 10 where 0 is no effect and 10 is complete control
In short: as §1

[7] = system: crabgrass; assay: Test B pre/postemergence crabgrass; type: in vivo, Digitaria sanguinalis; settings: for Crabgrass plant response rating: scale of 0 to 10 where 0 is no effect and 10 is complete control
In short: as §1

[8] = system: bedstraw; assay: Test B pre/postemergence bedstraw; type: in vivo, Galium aparine; settings: Preemergence
In short: as §1

[9] = system: cocklebur; assay: Test B pre/postemergence cocklebur; type: in vivo, Xanthium strumarium; settings: for Cocklebur plant response rating: scale of 0 to 10 where 0 is no effect and 10 is complete control
In short: as §1

[10] = system: surinam grass; assay: Test B pre/postemergence surinam grass; type: in vivo, Brachiaria decumbens; settings: for B. signalgrass plant response rating: scale of 0 to 10 where 0 is no effect and 10 is complete control
In short: as §1

[11] = system: duck salad; assay: Test B flood test duck salad; type: in vivo, Heteranthera limosa
In short: as §2

[12] = system: wheat; assay: Test B pre/postemergence wheat; type: in vivo, Triticum aestivum; settings: for Wheat plant response rating: scale of 0 to 10 where 0 is no effect and 10 is complete control
In short: as §1

[13] = system: wild oat; assay: Test B pre/postemergence wild oat; type: in vivo, Avena fatua; settings: for Wild oats plant response rating: scale of 0 to 10 where 0 is no effect and 10 is complete control
In short: as §1

[14] = system: rice; assay: Test B flood test rice; type: in vivo, Oryza sativa
In short: as §2

[15] = system: velvetleaf; assay: Test B pre/postemergence velvetleaf; type: in vivo, Abutilon theophrasti; settings: for Velvetleaf plant response rating: scale of 0 to 10 where 0 is no effect and 10 is complete control
In short: as §1

[16] = system: smallflower flatsedge; assay: Test B flood test smallflower flatsedge; type: in vivo, Cyperus difformis
In short: as §2

[17] = system: rape; assay: Test B pre/postemergence rape; type: in vivo, Brassica napus; settings: for Rape plant response rating: scale of 0 to 10 where 0 is no effect and 10 is complete control
In short: as §1

[18] = Postemergence, Rate 125 g/ha, scale 0 to 10, 0 is no effect, 10 is complete control
[19] = Postemergence, Rate 250 g/ha, scale 0 to 10, 0 is no effect, 10 is complete control
[20] = Preemergence, Rate 62 g/ha, scale 0 to 10 (0 no effect, 10 complete control)
[21] = Rate 500 g/ha, Postemergence, scale 0 to 10, 0 no effect, 10 complete control
[22] = Rate 62 g/ha, flood test species, Pre-emergence, visual evaluation after twelve to sixteen days
[23] = Rate 125 g/ha, under heading Pre-emergence, flood test species, visual evaluation after twelve to sixteen days
[24] = Rate 250 g/ha, Pre-emergence, flood-test species, scale 0 to 10, 0 is no effect, 10 is complete control
[25] = Rate 500 g/ha, Pre-emergence, flood test species, scale 0 to 10 (0 no effect, 10 complete control)

Cc1nsc(Cl)c1Cn1c(=O)on(C(=O)N(c2ccc(F)cc2)C(C)C)c1=O [Compound 373]
Plant response rating, Soybean [1, 18]: 3 | Plant response rating, Soybean [1, 19]: 4 | Plant response rating, Soybean [1, 20]: 0 | Soybean plant response rating (0 to 10 scale) ([1]; Preemergence, Rate 125 g/ha): 0 | Soybean plant response rating ([1]; Preemergence, Rate 250 g/ha): 0 | Soybean plant response rating ([1]; Preemergence, Rate 500 g/ha): 2 | Soybean plant response rating ([1]; Rate 62 g/ha, Postemergence): 3 | Plant response rating, Soybean [1, 21]: 4 | Plant response rating, Nutsedge [2, 18]: 0 | Plant response rating, Nutsedge [2, 19]: 0 | Plant response rating, Nutsedge [2, 20]: 0 | Nutsedge plant response rating (0 to 10 scale) ([2]; Preemergence, Rate 125 g/ha): 0 | Nutsedge plant response rating ([2]; Preemergence, Rate 250 g/ha): 0 | Nutsedge plant response rating ([2]; Preemergence, Rate 500 g/ha): 0 | Nutsedge plant response rating ([2]; Rate 62 g/ha, Postemergence): 0 | Plant response rating, Nutsedge [2, 21]: 0 | Plant response rating, Barnyardgrass (0 to 10 scale, 0 is no effect, 10 is complete control) [3, 22]: 0 | Barnyardgrass plant response rating (0 to 10 scale, 0 is no effect, 10 is complete control) [3, 23]: 0 | Barnyardgrass plant response rating [3, 24]: 0 | Barnyardgrass plant response rating [3, 25]: 0 | Plant response rating, Blackgrass [4, 18]: 0 | Plant response rating, Blackgrass [4, 19]: 0 | Plant response rating, Blackgrass [4, 20]: 1 | Blackgrass plant response rating (0 to 10 scale) ([4]; Preemergence, Rate 125 g/ha): 3 | Blackgrass plant response rating ([4]; Preemergence, Rate 250 g/ha): 5 | Blackgrass plant response rating ([4]; Preemergence, Rate 500 g/ha): 7 | Blackgrass plant response rating ([4]; Rate 62 g/ha, Postemergence): 0 | Plant response rating, Blackgrass [4, 21]: 0 | Plant response rating, Sugarbeets [5, 18]: 0 | Plant response rating, Sugarbeets [5, 19]: 1 | Plant response rating, Sugarbeets [5, 20]: 0 | Sugarbeets plant response rating (0 to 10 scale) ([5]; Preemergence, Rate 125 g/ha): 0 | Sugarbeets plant response rating ([5]; Preemergence, Rate 250 g/ha): 4 | Sugarbeets plant response rating ([5]; Preemergence, Rate 500 g/ha): 7 | Sugarbeets plant response rating ([5]; Rate 62 g/ha, Postemergence): 0 | Plant response rating, Sugarbeets [5, 21]: 4 | Plant response rating, Corn [6, 18]: 0 | Plant response rating, Corn [6, 19]: 0 | Plant response rating, Corn [6, 20]: 0 | Corn plant response rating (0 to 10 scale) ([6]; Preemergence, Rate 125 g/ha): 0 | Corn plant response rating ([6]; Preemergence, Rate 250 g/ha): 3 | Corn plant response rating ([6]; Preemergence, Rate 500 g/ha): 3 | Corn plant response rating ([6]; Rate 62 g/ha, Postemergence): 0 | Plant response rating, Corn [6, 21]: 0 | Plant response rating, Crabgrass [7, 18]: 0 | Plant response rating, Crabgrass [7, 19]: 1 | Plant response rating, Crabgrass [7, 20]: 4 | Crabgrass plant response rating (0 to 10 scale) ([7]; Preemergence, Rate 125 g/ha): 7 | Crabgrass plant response rating ([7]; Preemergence, Rate 250 g/ha): 10 | Crabgrass plant response rating ([7]; Preemergence, Rate 500 g/ha): 10 | Crabgrass plant response rating ([7]; Rate 62 g/ha, Postemergence): 0 | Plant response rating, Crabgrass [7, 21]: 2 | Plant response rating, Bedstraw ([8]; Rate 62 g/ha, scale 0 to 10 (0 no effect, 10 complete control)): 0 | Bedstraw plant response rating (0 to 10 scale) ([8]; Rate 125 g/ha): 0 | Bedstraw plant response rating ([8]; Rate 500 g/ha, scale of 0 to 10 where 0 is no effect and 10 is complete control): 0 | Plant response rating, Cocklebur [9, 18]: 1 | Plant response rating, Cocklebur [9, 19]: 2 | Plant response rating, Cocklebur [9, 20]: 0 | Cocklebur plant response rating (0 to 10 scale) ([9]; Preemergence, Rate 125 g/ha): 0 | Cocklebur plant response rating ([9]; Preemergence, Rate 250 g/ha): 0 | Cocklebur plant response rating ([9]; Preemergence, Rate 500 g/ha): 0 | Cocklebur plant response rating ([9]; Rate 62 g/ha, Postemergence): 0 | Plant response rating, Cocklebur [9, 21]: 2 | Plant response rating, B. signalgrass [10, 18]: 0 | Plant response rating, B. signalgrass [10, 19]: 0 | Plant response rating, B. signalgrass [10, 20]: 0 | B. signalgrass plant response rating (0 to 10 scale, 0 is no effect, 10 is complete control) ([10]; Preemergence, Rate 125 g/ha): 0 | B. signalgrass plant response rating ([10]; Preemergence, Rate 250 g/ha): 0 | B. signalgrass plant response rating ([10]; Preemergence, Rate 500 g/ha): 2 | B. signalgrass plant response rating ([10]; Rate 62 g/ha, Postemergence): 0 | Plant response rating, B. signalgrass [10, 21]: 0 | Plant response rating, Ducksalad (0 to 10 scale, 0 is no effect, 10 is complete control) [11, 22]: 0 | Ducksalad plant response rating (0 to 10 scale, 0 is no effect, 10 is complete control) [11, 23]: 0 | Ducksalad plant response rating [11, 24]: 0 | Ducksalad plant response rating [11, 25]: 0 | Plant response rating, Wheat [12, 18]: 0 | Plant response rating, Wheat [12, 19]: 0 | Plant response rating, Wheat [12, 20]: 0 | Wheat plant response rating (0 to 10 scale) ([12]; Preemergence, Rate 125 g/ha): 0 | Wheat plant response rating ([12]; Preemergence, Rate 250 g/ha): 0 | Wheat plant response rating ([12]; Preemergence, Rate 500 g/ha): 0 | Wheat plant response rating ([12]; Rate 62 g/ha, Postemergence): 0 | Plant response rating, Wheat [12, 21]: 0 | Plant response rating, Wild oats [13, 18]: 0 | Plant response rating, Wild oats [13, 19]: 0 | Plant response rating, Wild oats [13, 20]: 0 | Wild oats plant response rating (0 to 10 scale) ([13]; Preemergence, Rate 125 g/ha): 0 | Wild oats plant response rating ([13]; Preemergence, Rate 250 g/ha): 0 | Wild oats plant response rating ([13]; Preemergence, Rate 500 g/ha): 0 | Wild oats plant response rating ([13]; Rate 62 g/ha, Postemergence): 0 | Plant response rating, Wild oats [13, 21]: 0 | Plant response rating, Rice (0 to 10 scale, 0 is no effect, 10 is complete control) [14, 22]: 0 | Rice plant response rating (0 to 10 scale, 0 is no effect, 10 is complete control) [14, 23]: 0 | Rice plant response rating [14, 24]: 0 | Rice plant response rating [14, 25]: 0 | Plant response rating, Velvetleaf [15, 18]: 0 | Plant response rating, Velvetleaf [15, 19]: 1 | Plant response rating, Velvetleaf [15, 20]: 0 | Velvetleaf plant response rating (0 to 10 scale) ([15]; Preemergence, Rate 125 g/ha): 0 | Velvetleaf plant response rating ([15]; Preemergence, Rate 250 g/ha): 0 | Velvetleaf plant response rating ([15]; Preemergence, Rate 500 g/ha): 0 | Velvetleaf plant response rating ([15]; Rate 62 g/ha, Postemergence): 0 | Plant response rating, Velvetleaf [15, 21]: 2 | Plant response rating, S. Flatsedge (0 to 10 scale, 0 is no effect, 10 is complete control) [16, 22]: 0 | S. Flatsedge plant response rating (0 to 10 scale, 0 is no effect, 10 is complete control) [16, 23]: 0 | S. Flatsedge plant response rating [16, 24]: 0 | S. Flatsedge plant response rating [16, 25]: 0 | Plant response rating, Rape [17, 18]: 1 | Plant response rating, Rape [17, 19]: 2 | Plant response rating, Rape [17, 20]: 0 | Rape plant response rating (0 to 10 scale) ([17]; Preemergence, Rate 125 g/ha): 0 | Rape plant response rating ([17]; Preemergence, Rate 250 g/ha): 0 | Rape plant response rating ([17]; Rate 62 g/ha, Postemergence): 0 | Plant response rating, Rape [17, 21]: 5
